Measured values: paper doi:10.1101/2020.05.04.072892v1 (bioRxiv, 2020)

Tested on: GBM6 cells
Assay: Nanoparticle internalization by flow cytometry, GBM6 cells
Format: cell-based, Human
Conditions: for cell internalization of free dye: average bulk FL of FAM with flow cytometry, over time

| Compound | cell internalization of free dye | cell internalization of free dye (listed as free FAM) | time of maximum DOX fluorescence in cells (average bulk FL of DOX by FCT) |
| --- | --- | --- | --- |
| 5,6-carboxyfluorescein [FAM] | cannot enter cells | no cell |  |
| COc1cccc2c1C(=O)c1c(O)c3c(c(O)c1C2=O)C[C@@](O)(C(=O)CO)C[C@@H]3O[C@H]1C[C@H](N)[C@H](O)[C@H](C)O1 [free DOX, doxorubicin] |  |  | 24 h |
